# Values quoted from earlier work, collected in patent US20110136769A1, “METHOD OF TREATING MEN WITH TE[…] 5ALPHA-REDUCTASE INHIBITOR” (Merck Sharp & Dohme Corp., priority 2007, published 2011).
# What was measured:
# 5α-reductase type 2 = target: T1, 5α-reductase type 2 (Homo sapiens, UniProt P31213); conditions: background statement
# T1 construct: Samples of human tissue were pulverized using a freezer mill and homogenized; from tissue; host or cells: human prostate (crude nuclear pellet of homogenate)
# T1 sequence (P31213 1-254): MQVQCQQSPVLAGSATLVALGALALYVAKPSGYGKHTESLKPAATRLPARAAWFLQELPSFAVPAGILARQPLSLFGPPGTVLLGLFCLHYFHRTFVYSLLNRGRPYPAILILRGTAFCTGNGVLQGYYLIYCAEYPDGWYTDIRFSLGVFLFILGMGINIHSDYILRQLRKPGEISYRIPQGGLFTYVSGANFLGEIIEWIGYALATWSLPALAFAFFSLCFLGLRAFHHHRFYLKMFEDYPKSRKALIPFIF
# 5α-reductase type 1 = target: T2, 5α-reductase type 1 (Homo sapiens, UniProt P18405); conditions: background statement
# T2 construct: Samples of human tissue were pulverized using a freezer mill and homogenized; from tissue; host or cells: human scalp (crude nuclear pellet of homogenate)
# T2 sequence (P18405 1-259): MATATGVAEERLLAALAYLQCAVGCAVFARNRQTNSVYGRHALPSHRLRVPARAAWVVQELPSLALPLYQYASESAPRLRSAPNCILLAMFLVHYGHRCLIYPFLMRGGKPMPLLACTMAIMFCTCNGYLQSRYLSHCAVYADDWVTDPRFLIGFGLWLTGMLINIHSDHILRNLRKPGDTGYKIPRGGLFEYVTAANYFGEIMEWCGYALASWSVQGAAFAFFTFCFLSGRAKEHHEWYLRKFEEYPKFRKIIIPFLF
SMILES,inhibition of the human type 2 enzyme (5α-reductase type 2),inhibition of 5α-reductase type 1 (5α-reductase type 1)
"CC(C)(C)NC(=O)[C@H]1CCC2C3CCC4NC(=O)C=C[C@]4(C)C3CC[C@@]21C (stereo partly drawn) [Finasteride, 17β-(N-tert-butylcarbamoyl)-3-oxo-4-aza-5α-androst-1-en-3-one]",potent inhibitor,–
C[C@]12C=CC(=O)N[C@@H]1CC[C@@H]1[C@@H]2CC[C@]2(C)[C@@H](C(=O)Nc3cc(C(F)(F)F)ccc3C(F)(F)F)CC[C@@H]12 [dutasteride],potent inhibitors,potent inhibitors
